Measurements from ChEMBL document CHEMBL1139699, “Solid-phase synthesis and antibacterial activity of hydroxycinnamic acid amides and analogues against methicillin-resistant Staphylococcus aureus and vancomycin-resistant S. aureus” (Bioorg Med Chem Lett, 2006).
Values after ≈ are worked out from the molar mass of the structure shown. Active and inactive are the calls of the source. The calls are words filed in the database; no cut-off is given here.

Tests used:
Staphylococcus aureus [1] = assay: Antibacterial activity against methicillin-resistant Staphylococcus aureus 20630; format: functional
Staphylococcus aureus [2] = assay: Antibacterial activity against methicillin-resistant Staphylococcus aureus 20631; format: functional
Staphylococcus aureus [3] = assay: Antibacterial activity against methicillin-resistant Staphylococcus aureus 20632; format: functional
Staphylococcus aureus [4] = assay: Antibacterial activity against methicillin-resistant Staphylococcus aureus 20635; format: functional
Staphylococcus aureus [5] = assay: Antibacterial activity against methicillin-resistant Staphylococcus aureus 20636; format: functional
Staphylococcus aureus [6] = assay: Antibacterial activity against methicillin-resistant Staphylococcus aureus 20654; format: functional
Staphylococcus aureus [7] = assay: Antibacterial activity against vancomycin-resistant Staphylococcus aureus 20622 at 256 ug/ml; format: functional, organism-based
Staphylococcus aureus [8] = assay: Antibacterial activity against vancomycin-resistant Staphylococcus aureus 20623 at 256 ug/ml; format: functional, organism-based
Staphylococcus aureus [9] = assay: Antibacterial activity against vancomycin-resistant Staphylococcus aureus 20624 at 256 ug/ml; format: functional, organism-based
Staphylococcus aureus [10] = assay: Antibacterial activity against vancomycin-resistant Staphylococcus aureus 21083 at 256 ug/ml; format: functional, organism-based
Staphylococcus aureus [11] = assay: microbe, parasite or virus in culture; conditions: 20652
Staphylococcus aureus [12] = assay: Antibacterial activity against vancomycin-resistant Staphylococcus aureus 20623; format: functional
Staphylococcus aureus [13] = assay: Antibacterial activity against vancomycin-resistant Staphylococcus aureus 20624; format: functional
Staphylococcus aureus [14] = assay: Antibacterial activity against vancomycin-resistant Staphylococcus aureus 21083; format: functional
Staphylococcus aureus [15] = assay: Antibacterial activity against methicillin-resistant Staphylococcus aureus 20652 at 50 ug/ml; format: functional, organism-based
[16] = Cytotoxicity against human gingival cells; format: cell-based
Staphylococcus aureus [17] = assay: Antibacterial activity against methicillin-resistant Staphylococcus aureus; format: functional
Staphylococcus aureus [18] = assay: Antibacterial activity against methicillin-resistant Staphylococcus aureus 20628; format: functional
Staphylococcus aureus [19] = assay: Antibacterial activity against methicillin-resistant Staphylococcus aureus 20633; format: functional
Staphylococcus aureus [20] = assay: Antibacterial activity against methicillin-resistant Staphylococcus aureus 20653; format: functional
Staphylococcus aureus [21] = assay: Antibacterial activity against vancomycin-resistant Staphylococcus aureus 20622; format: functional
Staphylococcus aureus [22] = assay: Antibacterial activity against methicillin-resistant Staphylococcus aureus 20652 at 100 ug/ml; format: functional, organism-based
Staphylococcus aureus [23] = assay: Antibacterial activity against methicillin-resistant Staphylococcus aureus at 256 ug/ml; format: functional, organism-based
Staphylococcus aureus [24] = assay: Antibacterial activity against methicillin-resistant Staphylococcus aureus 20628 at 256 ug/ml; format: functional, organism-based
Staphylococcus aureus [25] = assay: Antibacterial activity against methicillin-resistant Staphylococcus aureus 20630 at 256 ug/ml; format: functional, organism-based
Staphylococcus aureus [26] = assay: Antibacterial activity against methicillin-resistant Staphylococcus aureus 20631 at 256 ug/ml; format: functional, organism-based
Staphylococcus aureus [27] = assay: Antibacterial activity against methicillin-resistant Staphylococcus aureus 20632 at 256 ug/ml; format: functional, organism-based
Staphylococcus aureus [28] = assay: Antibacterial activity against methicillin-resistant Staphylococcus aureus 20633 at 256 ug/ml; format: functional, organism-based
Staphylococcus aureus [29] = assay: Antibacterial activity against methicillin-resistant Staphylococcus aureus 20635 at 256 ug/ml; format: functional, organism-based
Staphylococcus aureus [30] = assay: Antibacterial activity against methicillin-resistant Staphylococcus aureus 20636 at 256 ug/ml; format: functional, organism-based
Staphylococcus aureus [31] = assay: Antibacterial activity against methicillin-resistant Staphylococcus aureus 20652 at 256 ug/ml; format: functional, organism-based
Staphylococcus aureus [32] = assay: Antibacterial activity against methicillin-resistant Staphylococcus aureus 20653 at 256 ug/ml; format: functional, organism-based
Staphylococcus aureus [33] = assay: Antibacterial activity against methicillin-resistant Staphylococcus aureus 20654 at 256 ug/ml; format: functional, organism-based
Staphylococcus aureus [34] = assay: Antibacterial activity against methicillin-resistant Staphylococcus aureus 20628 at 25 ug/ml; format: functional, organism-based
Staphylococcus aureus [35] = assay: Antibacterial activity against methicillin-resistant Staphylococcus aureus 20633 at 25 ug/ml; format: functional, organism-based
Staphylococcus aureus [36] = assay: Antibacterial activity against methicillin-resistant Staphylococcus aureus 20636 at 25 ug/ml; format: functional, organism-based
Staphylococcus aureus [37] = assay: Antibacterial activity against methicillin-resistant Staphylococcus aureus 20652 at 25 ug/ml; format: functional, organism-based
Staphylococcus aureus [38] = assay: Antibacterial activity against methicillin-resistant Staphylococcus aureus 20653 at 25 ug/ml; format: functional, organism-based
Staphylococcus aureus [39] = assay: Antibacterial activity against methicillin-resistant Staphylococcus aureus 20654 at 25 ug/ml; format: functional, organism-based

| Compound | MIC (Staphylococcus aureus [1]) [µg/mL] | MIC (Staphylococcus aureus [2]) [µg/mL] | MIC (Staphylococcus aureus [3]) [µg/mL] | MIC (Staphylococcus aureus [4]) [µg/mL] | MIC (Staphylococcus aureus [5]) [µg/mL] | MIC (Staphylococcus aureus [6]) [µg/mL] | Activity (Staphylococcus aureus [7]) | Activity (Staphylococcus aureus [8]) | Activity (Staphylococcus aureus [9]) | Activity (Staphylococcus aureus [10]) | MIC (Staphylococcus aureus [12]) [µg/mL] | MIC (Staphylococcus aureus [13]) [µg/mL] | MIC (Staphylococcus aureus [14]) [µg/mL] | Activity (Staphylococcus aureus [15]) | IC50 [16] [µg/mL] | MIC (Staphylococcus aureus [17]) [µg/mL] | MIC (Staphylococcus aureus [18]) [µg/mL] | MIC (Staphylococcus aureus [19]) [µg/mL] | MIC (Staphylococcus aureus [20]) [µg/mL] | MIC (Staphylococcus aureus [21]) [µg/mL] | other results |
| --- | --- | --- | --- | --- | --- | --- | --- | --- | --- | --- | --- | --- | --- | --- | --- | --- | --- | --- | --- | --- | --- |
| CN[C@H](CC(C)C)C(=O)N[C@H]1C(=O)N[C@@H](CC(N)=O)C(=O)N[C@H]2C(=O)N[C@H]3C(=O)N[C@H](C(=O)N[C@H](C(=O)O)c4cc(O)cc(O)c4-c4cc3ccc4O)[C@H](O)c3ccc(c(Cl)c3)Oc3cc2cc(c3O[C@@H]2O[C@H](CO)[C@@H](O)[C@H](O)[C@H]2O[C@H]2C[C@](C)(N)[C@H](O)[C@H](C)O2)Oc2ccc(cc2Cl)[C@H]1O [VANCOMYCIN] | 1.5 (≈ 1.04 µM) | 48 (≈ 33.1 µM) | 3 (≈ 2.07 µM) | 8 (≈ 5.52 µM) | 1.5 (≈ 1.04 µM) | 1.5 (≈ 1.04 µM) | inactive | inactive | inactive | inactive |  |  |  |  |  |  |  |  |  |  | MIC (Staphylococcus aureus [11]): 0.25 µg/mL (≈ 0.173 µM) |
| NCCCCNC(=O)CCc1ccc(O)c(O)c1 | 50 (≈ 198 µM) | 25 (≈ 99.1 µM) | 25 (≈ 99.1 µM) | 12.5 (≈ 49.5 µM) | 25 (≈ 99.1 µM) | 25 (≈ 99.1 µM) |  |  |  |  | 25 (≈ 99.1 µM) | 25 (≈ 99.1 µM) | 25 (≈ 99.1 µM) | inactive | > 100 | 25 (≈ 99.1 µM) | 50 (≈ 198 µM) | 25 (≈ 99.1 µM) | 25 (≈ 99.1 µM) | 100 (≈ 396 µM) |  |
| NCCCNC(=O)CCc1ccc(O)c(O)c1 | 50 (≈ 210 µM) | 50 (≈ 210 µM) | 50 (≈ 210 µM) | 25 (≈ 105 µM) | 25 (≈ 105 µM) | 50 (≈ 210 µM) |  |  |  |  | 50 (≈ 210 µM) | 50 (≈ 210 µM) | 25 (≈ 105 µM) | inactive | > 100 | 50 (≈ 210 µM) | 50 (≈ 210 µM) | 50 (≈ 210 µM) | 25 (≈ 105 µM) | 100 (≈ 420 µM) |  |
| NCCCCCCNC(=O)/C=C/c1ccc(O)c(O)c1 | 50 (≈ 180 µM) | 50 (≈ 180 µM) | 50 (≈ 180 µM) | 25 (≈ 89.8 µM) | 50 (≈ 180 µM) | 25 (≈ 89.8 µM) |  |  |  |  | 50 (≈ 180 µM) | 50 (≈ 180 µM) | 25 (≈ 89.8 µM) |  | > 100 | 100 (≈ 359 µM) | 50 (≈ 180 µM) | 50 (≈ 180 µM) | 25 (≈ 89.8 µM) | 100 (≈ 359 µM) | Activity (Staphylococcus aureus [22]): inactive |
| Cc1onc(-c2ccccc2)c1C(=O)N[C@@H]1C(=O)N2[C@@H]1SC(C)(C)[C@@H]2C(=O)O |  |  |  |  |  |  | inactive | inactive | inactive | inactive |  |  |  |  |  |  |  |  |  |  | Activity (Staphylococcus aureus [23]): inactive; Activity (Staphylococcus aureus [24]): inactive; Activity (Staphylococcus aureus [25]): inactive; Activity (Staphylococcus aureus [26]): inactive; Activity (Staphylococcus aureus [27]): inactive; Activity (Staphylococcus aureus [28]): inactive; Activity (Staphylococcus aureus [29]): inactive; Activity (Staphylococcus aureus [30]): inactive; Activity (Staphylococcus aureus [31]): inactive; Activity (Staphylococcus aureus [32]): inactive; Activity (Staphylococcus aureus [33]): inactive |
| NCCCCCNC(=O)CCc1ccc(O)c(O)c1 | 50 (≈ 188 µM) | 50 (≈ 188 µM) | 50 (≈ 188 µM) | 25 (≈ 93.9 µM) |  |  |  |  |  |  | 25 (≈ 93.9 µM) | 50 (≈ 188 µM) | 25 (≈ 93.9 µM) |  | > 100 | 50 (≈ 188 µM) |  |  |  | 50 (≈ 188 µM) | Activity (Staphylococcus aureus [34]): inactive; Activity (Staphylococcus aureus [35]): inactive; Activity (Staphylococcus aureus [36]): inactive; Activity (Staphylococcus aureus [37]): inactive; Activity (Staphylococcus aureus [38]): inactive; Activity (Staphylococcus aureus [39]): inactive |
